The values that follow come from ChEMBL document CHEMBL1201862, “PubChem BioAssay data set” (2004).

Test [1] deals with Metabotropic glutamate receptor 3 (Rattus norvegicus, UniProt P31422). The test can be described thus: mGlu3 negative allosteric modulator potency, dose response, HEK/GIRK cells, thallium flux, rat (AID 651839). It counts as functional.
Test [2] deals with Kappa-type opioid receptor (Homo sapiens, UniProt P41145). The test can be described thus: OPRK1 antagonists, late-stage follow-up, cell-based, fluorescence, dose response (AID 652032). It counts as functional.
Sequence of Kappa-type opioid receptor (P41145 whole entry): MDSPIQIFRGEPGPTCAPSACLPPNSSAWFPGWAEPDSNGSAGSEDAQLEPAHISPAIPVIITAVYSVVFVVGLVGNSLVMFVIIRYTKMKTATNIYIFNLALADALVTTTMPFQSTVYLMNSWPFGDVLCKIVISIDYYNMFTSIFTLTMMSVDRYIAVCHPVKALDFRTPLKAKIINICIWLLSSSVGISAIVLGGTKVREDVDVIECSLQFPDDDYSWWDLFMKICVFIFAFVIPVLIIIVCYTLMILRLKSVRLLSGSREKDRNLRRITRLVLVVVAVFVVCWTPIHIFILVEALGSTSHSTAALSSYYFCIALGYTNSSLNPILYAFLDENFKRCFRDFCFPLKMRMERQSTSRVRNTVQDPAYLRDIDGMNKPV
The next test has as its target Mu-type opioid receptor (Homo sapiens, UniProt P35372). The test can be described thus: Late-stage results from the probe development effort to identify antagonists of OPRK1: luminescence-based cell-based dose response OPRM1 counterscreen. It counts as functional.
The target of test [3] is Delta-type opioid receptor (Homo sapiens, UniProt P41143). As to the kind of experiment: Late-stage results from the probe development effort to identify antagonists of OPRK1: fluorescence-based cell-based dose response OPRD1 counterscreen. It counts as functional. (In general: The purpose of a counterscreen is to sort out artefacts and off-target activity.)
Sequence of Delta-type opioid receptor (P41143 whole entry): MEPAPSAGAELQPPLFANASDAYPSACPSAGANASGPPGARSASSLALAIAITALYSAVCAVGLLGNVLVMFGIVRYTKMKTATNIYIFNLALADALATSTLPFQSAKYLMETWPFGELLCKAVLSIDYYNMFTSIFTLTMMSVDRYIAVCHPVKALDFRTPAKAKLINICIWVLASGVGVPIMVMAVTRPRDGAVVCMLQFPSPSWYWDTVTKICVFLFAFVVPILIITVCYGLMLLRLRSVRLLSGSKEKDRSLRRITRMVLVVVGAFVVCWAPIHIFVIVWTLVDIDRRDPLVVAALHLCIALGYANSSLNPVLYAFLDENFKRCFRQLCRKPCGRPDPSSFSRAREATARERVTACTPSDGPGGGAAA
Test [4] is described as follows: cells. The conditions noted are these: HEK293.
Test [5] can be described thus: cells.
Test [6] can be described thus: human group III sPLA2 inhibitors, dose response, biochemical, QFRET, IC50 (AID 743457).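 Note: green fluorescence rise as the enzyme cleaves BODIPY PC-A2 in liposomes; potency for inhibition of the enzyme.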
Test [7] concerns Streptococcus sp. 'group A'. The test can be described thus: growth inhibition of control SK(-) GAS strain, dose response, counter-screen for streptokinase expression inhibitor project, luminescence, kanamycin, BacTiterGlo, confirmation (AID 1900). It counts as functional, organism-based.
The next test concerns Streptococcus. As to the kind of experiment: Group A Streptococcus viability loss, dose response, counter-screen for streptokinase expression inhibitor project, luminescence, BacTiterGlo (AID 1915).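 Note: potency for reduction of bacterial viability or growth.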 It counts as functional, organism-based.
Test [8] is described as follows: NIH-3T3 fibroblast cytotoxicity, dose response, cytotoxicity control, cell-based, fluorescence, Alamar Blue, secondary assay (AID 2327).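 Note: NIH-3T3 mouse fibroblasts cultured with fluconazole at 8 µg/mL.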 It counts as functional. On the technique in general: The colour change of resazurin is a common sign of viable cells or microbes.
Test [9] is described as follows: inhibitors of intracellular T. cruzi replication, confirmation, NIH3T3 host cells, beta-gal luminescence (AID 2044).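 Note: intracellular parasites grown in NIH/3T3 mouse fibroblasts as host cells; luminescent beta-galactosidase reporter signal from transgenic T. cruzi replicating inside host cells; inhibitors lower the luminescence signal.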 It counts as functional, cell-based.
The next test relates to Vero. As to the kind of experiment: cells. It counts as functional. Particulars: Chlorocebus sabaeus.
The nature of test [10]: C. albicans growth with fluconazole, confirmation, fluorescence, retest (AID 2467). It counts as functional, cell-based.
A short description of test [11]: cells. The conditions noted are these: A549.
Test [12] concerns the target Endoplasmic reticulum aminopeptidase 1 (Homo sapiens, UniProt Q9NZ08). The test can be described thus: ERAP1 aminopeptidase inhibitors, dose response, biochemical, cherry-pick, set 2, plate reader (AID 743314).
Test [13] is described as follows: Shn3 3'UTR reporter inhibitors, dose response, cell-based, Clone20 osteoblasts, firefly luciferase, cherry-picked (AID 624132).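 Note: firefly luciferase luminescence from reporter carrying the Shn3 3'UTR in osteoblasts.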 It counts as functional.
The subject of the next test is INS1. The test can be described thus: beta cell apoptosis inhibitors, cytokine rescue, dose response, luminescence, retest (AID 449756).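 Note: cell death triggered by IL-1 beta plus TNF-alpha plus IFN-gamma mixture; protective hits raise ATP signal compared with cytokine alone wells.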 It counts as functional, cell-based. The conditions noted are these: Rattus norvegicus.
Test [14] is described as follows: cytotoxicity toward NIH3T3 fibroblasts, dose response, counter-screen, cell-based, ATP luminescence, mouse fibroblasts (AID 2010).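 Note: cells exposed to compound for about 90 hours before reading.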 It counts as functional.
The nature of test [15]: HepG2 cell cytotoxicity, dose response, cytotoxicity control for Shn3 inhibitor project, CellTiter-Glo, cherry-picked (AID 624134). It counts as functional, cell-based.
A further test has as its system HEK293. The test can be described thus: inhibitors of LMP1-driven NF-kB reporter, dose response, cell-based, HEK293, luciferase, cherry-pick (AID 588343). Particulars: Homo sapiens. It counts as functional.
A short description of test [16]: control 3'UTR Renilla luciferase suppression, dose response, counter-screen for Shn3 inhibitor project, cell-based, Clone20-Shn3RL, cherry-picked (AID 624133). It counts as functional.
The nature of test [17]: HEK293T cytotoxicity, dose response, cytotoxicity control for miR-122 modulator project, cell-based, activator set, cherry-pick (AID 720690).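 Note: HEK293T human cells scored for general mammalian cytotoxicity.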 It counts as functional.
Test [18] can be described thus: HEK293T cytotoxicity, dose response, cytotoxicity control for miR-122 modulator project, cell-based, inhibitor set, cherry-pick, set 2 (AID 720697). It counts as functional.
Test [19] can be described thus: MC4R antagonists, dose response, counter-screen for LGR2 antagonist project, cell-based, plate reader, cherry pick (AID 743444).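 Note: transfected HEK 293 cells stimulated with alpha-MSH peptide; potency of inhibitors of the alpha-MSH evoked signal.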 It counts as functional.
Test [20] in a line: off-target signal loss in HeLa-CEM21 co-culture – HeLa F-luc CTL cells, cherry-picked, counter-screen for HIV-1 Env fusion inhibitor project, dose response (AID 652040).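 Note: potency for signal decrease marking cytotoxic or nonspecific inhibition.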 It counts as functional, cell-based.
Test [21] in a line: ZM109 Env clade C HIV-1 fusion inhibitors, dose response, HeLa effector, CEM target cells, luciferase, cherry-pick (AID 652058). It counts as functional, cell-based.
The nature of test [22]: HepG2 cell cytotoxicity, dose response, cytotoxicity control, plate reader, cherry-pick, antagonist series (AID 743416). It counts as functional, cell-based.
The nature of test [23]: CEM21 lymphoblast cell cytotoxicity, dose response, cytotoxicity control for viral fusion inhibitor project, CellTiter-Glo luminescence, cherry-picked (AID 652042).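 Note: potency for signal decrease meaning cytotoxicity.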 It counts as functional, cell-based. For orientation: In ATP-based viability assays light output follows the ATP content of the culture.
Test [24] is described as follows: LGR2 antagonists, dose response, cell-based, HEK293, CRE-luciferase reporter, cherry pick, set 2 (AID 743343).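 Note: transfected cells were stimulated with diluted bursicon conditioned medium after compound addition.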 It counts as functional.
The nature of test [25]: A549 cell cytotoxicity, dose response, cytotoxicity control, plate reader, cherry-pick, antagonist series (AID 743412). It counts as functional, cell-based.
The nature of test [26]: inhibitors of HIV Env-driven cell fusion, dose response, cherry-pick (AID 652057). It counts as functional, cell-based.
Test [27] can be described thus: HEK293 cell cytotoxicity, dose response, cytotoxicity control, plate reader, cherry-picked samples (AID 743446). It counts as functional, cell-based.
The nature of test [28]: inhibitors of clade B AD8 Env fusion, dose response, cell-based, cherry-pick (AID 652062).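 Note: luciferase signal from cell-cell fusion driven by HIV-1 clade B AD8 Env; potency is for inhibitors of fusion seen as a drop in luminescence.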 It counts as functional.

The source made the active and inactive calls. Where only a bound is given, the exact number is not on record here.

Sequence of Metabotropic glutamate receptor 3 (P31422 whole entry): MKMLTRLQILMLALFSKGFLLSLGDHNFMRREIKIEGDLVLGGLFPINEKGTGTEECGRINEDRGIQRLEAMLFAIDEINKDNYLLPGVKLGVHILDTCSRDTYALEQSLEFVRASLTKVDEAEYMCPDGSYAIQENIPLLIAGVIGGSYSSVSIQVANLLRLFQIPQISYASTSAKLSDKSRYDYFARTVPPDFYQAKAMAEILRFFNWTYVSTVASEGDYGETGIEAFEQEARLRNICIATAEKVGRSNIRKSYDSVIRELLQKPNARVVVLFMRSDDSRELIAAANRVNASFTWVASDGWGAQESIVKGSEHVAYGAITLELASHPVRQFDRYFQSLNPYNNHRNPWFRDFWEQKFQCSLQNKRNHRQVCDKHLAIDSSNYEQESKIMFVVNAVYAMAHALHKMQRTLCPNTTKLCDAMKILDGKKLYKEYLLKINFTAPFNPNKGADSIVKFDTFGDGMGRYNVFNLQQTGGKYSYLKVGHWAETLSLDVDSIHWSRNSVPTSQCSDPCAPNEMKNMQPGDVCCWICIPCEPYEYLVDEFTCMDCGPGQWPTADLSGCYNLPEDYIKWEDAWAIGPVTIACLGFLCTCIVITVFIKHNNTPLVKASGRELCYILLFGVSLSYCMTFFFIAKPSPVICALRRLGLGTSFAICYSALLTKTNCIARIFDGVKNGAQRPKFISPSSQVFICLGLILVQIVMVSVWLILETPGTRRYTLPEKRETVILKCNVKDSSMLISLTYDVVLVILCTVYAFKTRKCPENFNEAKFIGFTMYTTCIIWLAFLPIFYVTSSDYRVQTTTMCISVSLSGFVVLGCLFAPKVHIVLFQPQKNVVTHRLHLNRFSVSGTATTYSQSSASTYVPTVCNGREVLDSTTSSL
Sequence of Endoplasmic reticulum aminopeptidase 1 (Q9NZ08 whole entry): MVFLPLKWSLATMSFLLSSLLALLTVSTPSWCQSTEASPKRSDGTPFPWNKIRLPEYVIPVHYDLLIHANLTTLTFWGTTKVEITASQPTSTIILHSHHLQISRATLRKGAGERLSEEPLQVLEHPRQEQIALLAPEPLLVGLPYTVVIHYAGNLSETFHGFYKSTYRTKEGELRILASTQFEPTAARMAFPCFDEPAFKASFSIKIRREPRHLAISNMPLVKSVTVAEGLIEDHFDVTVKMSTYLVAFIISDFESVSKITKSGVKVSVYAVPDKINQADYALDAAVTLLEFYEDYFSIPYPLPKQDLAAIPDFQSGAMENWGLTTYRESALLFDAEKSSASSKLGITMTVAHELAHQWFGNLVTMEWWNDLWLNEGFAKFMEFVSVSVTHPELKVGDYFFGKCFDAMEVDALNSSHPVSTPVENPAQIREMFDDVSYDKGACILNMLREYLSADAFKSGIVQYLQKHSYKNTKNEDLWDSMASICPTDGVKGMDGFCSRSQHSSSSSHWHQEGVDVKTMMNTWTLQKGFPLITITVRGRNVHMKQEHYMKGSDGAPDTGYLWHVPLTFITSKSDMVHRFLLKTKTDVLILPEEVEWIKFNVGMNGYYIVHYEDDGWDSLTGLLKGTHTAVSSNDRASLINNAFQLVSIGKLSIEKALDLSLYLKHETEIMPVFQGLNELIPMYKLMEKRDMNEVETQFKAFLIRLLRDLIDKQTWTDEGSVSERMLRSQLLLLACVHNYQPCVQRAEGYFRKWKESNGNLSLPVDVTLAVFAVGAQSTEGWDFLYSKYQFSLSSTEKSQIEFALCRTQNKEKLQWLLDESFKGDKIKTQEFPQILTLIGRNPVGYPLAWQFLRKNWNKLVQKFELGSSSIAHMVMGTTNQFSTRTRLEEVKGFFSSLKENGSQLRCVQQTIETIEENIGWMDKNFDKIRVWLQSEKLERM
Sequence of Mu-type opioid receptor (P35372 whole entry): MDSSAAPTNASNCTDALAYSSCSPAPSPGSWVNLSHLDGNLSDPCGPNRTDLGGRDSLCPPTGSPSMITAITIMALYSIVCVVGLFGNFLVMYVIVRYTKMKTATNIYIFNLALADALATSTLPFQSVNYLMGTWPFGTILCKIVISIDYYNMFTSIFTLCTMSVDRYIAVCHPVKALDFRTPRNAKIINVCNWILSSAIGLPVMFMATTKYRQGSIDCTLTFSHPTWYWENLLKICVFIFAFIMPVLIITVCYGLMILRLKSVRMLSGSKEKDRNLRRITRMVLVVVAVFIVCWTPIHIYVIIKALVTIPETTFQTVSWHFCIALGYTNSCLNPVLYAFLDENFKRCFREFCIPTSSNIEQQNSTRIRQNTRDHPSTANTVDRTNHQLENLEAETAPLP

As usually defined, the IC50 is the midpoint of a concentration-inhibition curve. In the case of `COc1ccc(C#Cc2ccc(C(=O)N3CC[C@H](O)C3)cc2)cc1`, the IC50 in [1] was 8.66 µM (active).

On to `COC(=O)c1cc(Br)cnc1N1CCC(N[C@@H]2CCCC[C@@H]2O)CC1`, for which the IC50 is 0.579 µM (active) in test [2], 19 µM (inactive) on Mu-type opioid receptor and > 50 µM (inactive) in test [3].

One may read the AC50 as the concentration giving half of the maximal activity seen. Turning to `COCCn1c(=N)c(S(=O)(=O)c2ccc(F)cc2)cc2c(=O)n3ccccc3nc21`, the AC50 in “cells [4]” is > 52 µM (inactive); in “cells [5]” it was 1.5 µM (active).

As usually defined, the EC50 is the concentration giving half of the maximal effect. For orientation: CC50 means the concentration giving 50% cytotoxicity. As for `Cc1cc(C(=O)Nc2nc(-c3ccccn3)cs2)ccc1[N+](=O)[O-]`, the IC50 in [6] was > 122 µM (inactive). Besides, the EC50 in test [7] was 0.471 µM (active); in the test with Streptococcus, 7.36 µM (active); in [8], > 150 µM (inactive); in [9], 1.11 µM (active); in test [10], 1.25 µM (active). For the same compound, in the test with Vero, the CC50 was > 25 µM (active).

With `CCN(CC)c1ccc2c(C)c(Cl)c(=O)oc2c1`, in the test “cells [11]”, the AC50 is > 52 µM (inactive).

In the case of `Cc1c(C)c2ccc(O)c(CN3CCN(C)CC3)c2oc1=O`, the AC50 in test [12] was 10.8 µM (active).

In the case of `COc1ccc(C(NC(C)=O)c2cc(Cl)c3cccnc3c2O)cc1` (stereo not given), the AC50 is 1.61 µM (active) in [13]; 1.95 µM (active) in the test with INS1; 3.17 µM (active) in [15]; 4.38 µM (active) with HEK293; 1.66 µM (active) in test [16]; 12.1 µM (active) in test [17]. In addition, the AC50 in test [18] was 2.06 µM (active). The EC50 in [14] was 4.23 µM (active); in test [9] it was 1.47 µM (active).

Consider `Cc1nc(N/N=C/c2ccccn2)sc1C`, for which the AC50 was 0.949 µM (active) in test [19]; 13.5 µM (active) in test [20]; 3.83 µM (active) with INS1; 18.8 µM (active) in [21]; 2.7 µM (active) in test [22]; 6.02 µM (active) in [23]. For the same compound, the AC50 was 0.573 µM (active) in test [24]; 5.22 µM (active) in test [25]; 3.74 µM (active) in test [26]; 7.53 µM (active) in test [27]; 6.45 µM (active) in test [28].
